System: HepG2 cells
Assay: Cytotoxic activity on HepG2 cells (CCK-8 assay)
Type: cell-based
Details: Homo sapiens, HepG2; CCK-8, 48 h, mean of three experiments ±SD; read-out: IC50 over HepG2 cells
Procedure: Human hepatocellular liver carcinoma cell line (HepG2) were obtained from Institute of Biochemistry and Cell Biology, Academy of Science (Shanghai, China) and were authenticated using the STR profiling method. HepG2 cells were cultured in MDEM (Gibco, Waltham, MA, USA) supplemented with 10% fetal bovine serum (FBS) and 1% penicillin-streptomycin bubbled with 5% CO2-enriched air at a temperature of 37 °C (Thermo Scientific, Waltham, MA, USA). The cytotoxic effect of compounds on HepG2 cells was assessed by using CCK-8 method. Briefly, HepG2 cells were cultured in 96-well plates at a density of 5 × 10^3 cells per well for 24 h. […] Three replicates were performed. The relative cell viability was expressed as percentage relative to the untreated cells. The inhibition ratio was calculated. The IC50 values were calculated using Logistic regression from three independent tests.

SMILES	IC50
CC(C)C[C@H](N)C(=O)O[C@H]1CC[C@@]2(C)C(CC[C@]3(C)C2C[C@@H](O)C2C([C@]4(C)CC[C@H](C(C)(C)O)O4)CC[C@]23C)C1(C)C (stereo partly drawn) [2d, (20S, 24R)-Epoxy-3β-O-(L-leucyl)-dammarane-12β, 25-diol]	20.1 ± 3.49 µM
CSCC[C@H](N)C(=O)O[C@H]1CC[C@@]2(C)C([C@@H](O)C[C@]3(C)C2C[C@@H](O)C2C([C@]4(C)CC[C@H](C(C)(C)O)O4)CC[C@]23C)C1(C)C (stereo partly drawn) [4b, (20S, 24R)-Epoxy-3β-O-(L-methinyl)-dammarane-6α,12β,25-triol]	50.6 ± 0.62 µM
C[C@H](N)C(=O)O[C@H]1CC[C@@]2(C)C(CC[C@]3(C)C2C[C@@H](O)C2C([C@]4(C)CC[C@H](C(C)(C)O)O4)CC[C@]23C)C1(C)C (stereo partly drawn) [2a, (20S, 24R)-Epoxy-3β-O-(L-alanyl)-dammarane-12β, 25-diol]	16.5 ± 1.66 µM
CC(C)(C)OC(=O)N1CCCC1C(=O)O[C@H]1CC[C@@]2(C)C([C@@H](O)C[C@]3(C)C2C[C@@H](O)C2C([C@]4(C)CC[C@H](C(C)(C)O)O4)CC[C@]23C)C1(C)C (stereo partly drawn) [3e, (20S, 24R)-Epoxy-3β-O-(Boc-L-prolyl)-dammarane-6α,12β,25-triol]	41.8 ± 2.58 µM
CC(C)(C)OC(=O)N1CCCC1C(=O)O[C@H]1CC[C@@]2(C)C(CC[C@]3(C)C2C[C@@H](O)C2C([C@]4(C)CC[C@H](C(C)(C)O)O4)CC[C@]23C)C1(C)C (stereo partly drawn) [1e, (20S, 24R)-Epoxy-3β-O-(Boc-L-prolyl)-dammarane-12β, 25-diol]	30.5 ± 2.98 µM
C[C@H](NC(=O)OC(C)(C)C)C(=O)O[C@H]1CC[C@@]2(C)C([C@@H](O)C[C@]3(C)C2C[C@@H](O)C2C([C@]4(C)CC[C@H](C(C)(C)O)O4)CC[C@]23C)C1(C)C (stereo partly drawn) [3a, (20S, 24R)-Epoxy-3β-O-(Boc-L-alanyl)-dammarane-6α,12β,25-triol]	61 ± 1.57 µM
CC(C)[C@H](N)C(=O)O[C@H]1CC[C@@]2(C)C([C@@H](O)C[C@]3(C)C2C[C@@H](O)C2C([C@]4(C)CC[C@H](C(C)(C)O)O4)CC[C@]23C)C1(C)C (stereo partly drawn) [4f, (20S, 24R)-Epoxy-3β-O-(L-valyl)-dammarane-6α,12β,25-triol]	44.7 ± 3.07 µM
CSCC[C@H](NC(=O)OC(C)(C)C)C(=O)O[C@H]1CC[C@@]2(C)C([C@@H](O)C[C@]3(C)C2C[C@@H](O)C2C([C@]4(C)CC[C@H](C(C)(C)O)O4)CC[C@]23C)C1(C)C (stereo partly drawn) [3b, (20S, 24R)-Epoxy-3β-O-(Boc-L-methinyl)-dammarane-6α,12β,25-triol]	88.6 ± 5.03 µM
C[C@H](N)C(=O)O[C@H]1CC[C@@]2(C)C([C@@H](O)C[C@]3(C)C2C[C@@H](O)C2C([C@]4(C)CC[C@H](C(C)(C)O)O4)CC[C@]23C)C1(C)C (stereo partly drawn) [4a, (20S, 24R)-Epoxy-3β-O-(L-alanyl)-dammarane-6α,12β,25-triol]	34 ± 0.9 µM
CC(C)[C@H](NC(=O)OC(C)(C)C)C(=O)O[C@H]1CC[C@@]2(C)C([C@@H](O)C[C@]3(C)C2C[C@@H](O)C2C([C@]4(C)CC[C@H](C(C)(C)O)O4)CC[C@]23C)C1(C)C (stereo partly drawn) [3f, (20S, 24R)-Epoxy-3β-O-(Boc-L-valyl)-dammarane-6α,12β,25-triol]	80.1 ± 2.03 µM
CSCC[C@H](N)C(=O)O[C@H]1CC[C@@]2(C)C(CC[C@]3(C)C2C[C@@H](O)C2C([C@]4(C)CC[C@H](C(C)(C)O)O4)CC[C@]23C)C1(C)C (stereo partly drawn) [2b, (20S, 24R)-Epoxy-3β-O-(L-methinyl)-dammarane-12β, 25-diol]	20.3 ± 2.04 µM
C[C@H](NC(=O)OC(C)(C)C)C(=O)O[C@H]1CC[C@@]2(C)C(CC[C@]3(C)C2C[C@@H](O)C2C([C@]4(C)CC[C@H](C(C)(C)O)O4)CC[C@]23C)C1(C)C (stereo partly drawn) [1a, (20S, 24R)-Epoxy-3β-O-(Boc-L-alanyl)-dammarane-12β, 25-diol]	26.3 ± 0.72 µM
CC(C)(C)OC(=O)NCC(=O)O[C@H]1CC[C@@]2(C)C([C@@H](O)C[C@]3(C)C2C[C@@H](O)C2C([C@]4(C)CC[C@H](C(C)(C)O)O4)CC[C@]23C)C1(C)C (stereo partly drawn) [3c, (20S, 24R)-Epoxy-3β-O-(Boc-L-glycyl)-dammarane-6α,12β,25-triol]	32.6 ± 1.55 µM
CC(C)[C@H](NC(=O)OC(C)(C)C)C(=O)O[C@H]1CC[C@@]2(C)C(CC[C@]3(C)C2C[C@@H](O)C2C([C@]4(C)CC[C@H](C(C)(C)O)O4)CC[C@]23C)C1(C)C (stereo partly drawn) [1f, (20S, 24R)-Epoxy-3β-O-(Boc-L-valyl)-dammarane-12β, 25-diol]	62.1 ± 3.78 µM
CC(C)C[C@H](NC(=O)OC(C)(C)C)C(=O)O[C@H]1CC[C@@]2(C)C([C@@H](O)C[C@]3(C)C2C[C@@H](O)C2C([C@]4(C)CC[C@H](C(C)(C)O)O4)CC[C@]23C)C1(C)C (stereo partly drawn) [3d, (20S, 24R)-Epoxy-3β-O-(Boc-L-leucyl)-dammarane-6α,12β,25-triol]	74.9 ± 2.87 µM
CC(C)(O)C1CCC(C)(C2CCC3(C)C2C(O)CC2C4(C)CCC(O)C(C)(C)C4CCC23C)O1 (centres unmarked) [Pyxinol]	74.5 ± 1.09 µM
CC(C)[C@H](N)C(=O)O[C@H]1CC[C@@]2(C)C(CC[C@]3(C)C2C[C@@H](O)C2C([C@]4(C)CC[C@H](C(C)(C)O)O4)CC[C@]23C)C1(C)C (stereo partly drawn) [2f, (20S, 24R)-Epoxy-3β-O-(L-valyl)-dammarane-12β, 25-diol]	19.7 ± 1.96 µM
CC(C)C[C@H](N)C(=O)O[C@H]1CC[C@@]2(C)C([C@@H](O)C[C@]3(C)C2C[C@@H](O)C2C([C@]4(C)CC[C@H](C(C)(C)O)O4)CC[C@]23C)C1(C)C (stereo partly drawn) [4d, (20S, 24R)-Epoxy-3β-O-(L-leucyl)-dammarane-6α,12β,25-triol]	35.4 ± 1.59 µM
CSCC[C@H](NC(=O)OC(C)(C)C)C(=O)O[C@H]1CC[C@@]2(C)C(CC[C@]3(C)C2C[C@@H](O)C2C([C@]4(C)CC[C@H](C(C)(C)O)O4)CC[C@]23C)C1(C)C (stereo partly drawn) [1b, (20S, 24R)-Epoxy-3β-O-(Boc-L-methinyl)-dammarane-12β, 25-diol]	73.5 ± 2.6 µM
CC(C)C[C@H](NC(=O)OC(C)(C)C)C(=O)O[C@H]1CC[C@@]2(C)C(CC[C@]3(C)C2C[C@@H](O)C2C([C@]4(C)CC[C@H](C(C)(C)O)O4)CC[C@]23C)C1(C)C (stereo partly drawn) [1d, (20S, 24R)-Epoxy-3β-O-(Boc-L-leucyl)-dammarane-12β,25-diol]	73.1 ± 1.67 µM
CC(C)(O)[C@H]1CC[C@@](C)(C2CC[C@]3(C)C2[C@H](O)CC2[C@@]4(C)CC[C@H](OC(=O)CN)C(C)(C)C4[C@@H](O)C[C@]23C)O1 (stereo partly drawn) [4c, (20S, 24R)-Epoxy-3β-O-(-L-glycyl)-dammarane-6α,12β,25-triol]	20.6 ± 2.47 µM
CC(C)(C)OC(=O)NCC(=O)O[C@H]1CC[C@@]2(C)C(CC[C@]3(C)C2C[C@@H](O)C2C([C@]4(C)CC[C@H](C(C)(C)O)O4)CC[C@]23C)C1(C)C (stereo partly drawn) [1c, (20S, 24R)-Epoxy-3β-O-(Boc-L-glycyl)-dammarane-12β, 25-diol]	26.6 ± 1.52 µM
CC(C)(O)[C@H]1CC[C@@](C)(C2CC[C@]3(C)C2[C@H](O)CC2[C@@]4(C)CC[C@H](OC(=O)CN)C(C)(C)C4CC[C@]23C)O1 (stereo partly drawn) [2c, (20S, 24R)-Epoxy-3β-O-(L-glycyl)-dammarane-12β, 25-diol]	16.3 ± 0.31 µM
CC(C)(O)[C@H]1CC[C@@](C)(C2CC[C@]3(C)C2[C@H](O)CC2[C@@]4(C)CC[C@H](OC(=O)C5CCCN5)C(C)(C)C4[C@@H](O)C[C@]23C)O1 (stereo partly drawn) [4e, (20S, 24R)-Epoxy-3β-O-(L-prolyl)-dammarane-6α,12β,25-triol]	24.6 ± 0.35 µM

System: not given
Assay: not given
Details: rats; cited from earlier work

SMILES	oral bioavailability	t1/2
CC(C)(O)C1CCC(C)(C2CCC3(C)C2C(O)CC2C4(C)CCC(O)C(C)(C)C4CCC23C)O1 (centres unmarked) [Pyxinol]	low	short

— publication PMC7913291, “Synthesis and Anti-Hepatocarcinoma Effect of Amino Acid Derivatives of Pyxinol and Ocotillol” (Molecules, 2021)
